Experimental data as given in patent publication US8895509B2, “MIR-200 family induces mesenchymal-to-epithelial transition (MET) in ovarian cancer cells” (Georgia Tech Research Corporation, priority 2010, dated 2014).

Test system: HEY cells
Assay: sensitivity of transfected HEY cells to cisplatin
Type: cell-based, human
Settings: cisplatin 0.1-50 μM
Protocol: Cultures of the mesenchymal HEY cells were transfected with a negative control (NC) miRNA or miR-429 using Lipofectamine 2000 (Invitrogen) and treated with increasing concentrations of cisplatin. (0.1, 0.5, 1, 3, 5, 7, 10, 15, 20, 30, 50 μM).

N.N.[Cl][Pt][Cl] [cisplatin]
IC50 (HEY cells transfected with miR-429): 4.6 µM
IC50 (HEY cells transfected with negative control (NC) miRNA): 8.7 µM
